Test results reported in patent US8137977B2, “Lipidomic approaches to determining drug response phenotypes in cardiovascular disease” (Children's Hospital & Research Center at Oakland, priority 2007, dated 2012).

Test: Lipid profile changes (lipid classes and fatty acid composition) following simvastatin treatment, high vs low responders, PARC study
Assay type: in vivo, human
Conditions: 40 mg, 6 weeks vs baseline, high minus low, ANOVA
Protocol: We evaluated lipid profiles of 48 subjects selected from the Pharmacogenetics and Risk of Cardiovascular Disease (PARC) study. Subjects were selected from the larger study population of 944 participants (335 African-Americans and 609 whites), with a baseline total serum cholesterol level of 160 to 400 mg/dl. Participants were followed for a total of 6 weeks on simvastatin therapy (40 mg at bedtime). Twenty-four subjects drawn from the top 10% of responders and 24 age-, gender-, and race-matched subjects from the bottom 10% of responders. Response was defined as percent change in LDL cholesterol from baseline to end of treatment. Samples used in this study were collected at baseline and at 6 weeks of therapy.
Data Reporting. Lipids measured included, butyrobetaine, L-carnitine, cholesterol, cholesterol esters (CE), diglycerides (DG), free cholesterol (FC), free fatty acids (FA), lysophosphatidylcholine (LY), phosphatidylcholine (PC), phosphatidylethanolamine (PE) and triglycerides (TG). For CE, DG, FA, LY, PC, PE and TG lipid classes the following fatty acid components were quantified as a proportion of total fatty acids within the lipid class: 14:0, 15:0, 16:0, 18:0, 20:0, 22:0, 24:0, 14:1n5, 16:1n7, 18:1n7, 18:1n9, 20:1n9, 20:3n9, 22:1n9, 24:1n9, 18:2n6, 18:3n6, 20:2n6, 20:3n6, 20:4n6, 22:2n6, 22:4n6, 22:5n6, 18:3n3, 18:4n3, 20:3n3, 20:4n3, 20:5n3, 22:5n3, 22:6n3, 24:6n3, plasmalogen derivatives of 16:0, 18:0, 18:1n7 and 18:1n9, t16:1n7 t18:1n9 t18:2n6. The term “LC” indicates the value shown is the total concentration of the lipid class expressed as nMoles per gram of serum or plasma. Thus, the abbreviation PC18:2n6 indicates the percentage of plasma or serum phosphatidylcholine comprised of linoleic acid (18:2n6), and the term TGLC indicates the absolute amount of triglyceride present in plasma or serum.
Statistical Methods. Before undertaking analysis, the data was cleaned by outlier removal and removal of uninformative metabolites. Outliers were identifies as those observation more than three standard deviations from the mean. Metabolites were determined to be uninformative if over ⅔rds of the observations were below the limit of detection and the pattern of observations falling below this limit was not related to the outcome.
Results of t-tests were used in order to reduce the number of metabolites being modeled.
A simple one-way ANOVA was used to evaluate the difference in lipid changes between high and low responders. From this analysis, contrasts were calculated for the comparison of low to high responders. In addition, an ANCOVA model was used to evaluate the difference in response adjusting for baseline concentrations of the metabolite and the time the samples were run. The outcome was change from baseline to post-treatment, baseline concentration was the covariate, response (high=1, low=0) and group (first=0, second=1) were included as factors, and an interaction term between baseline and response was included.
The column labeled “estimate” is the difference between the change from pre to post in high and low responders (high minus low). The standard error, t-statistic, p-value, and 95% confidence bounds of this estimate are also included (Lower.CI and Upper.CI).

[1] = proportion of fatty acids in lysophosphatidylcholine
[2] = proportion of fatty acids in phosphatidylcholine
[3] = proportion of fatty acids in phosphatidylethanolamine
[4] = proportion of fatty acids in triglyceride

CCC(C)(C)C(=O)O[C@H]1C[C@@H](C)C=C2C=C[C@H](C)[C@H](CC[C@@H]3C[C@@H](O)CC(=O)O3)[C@H]21 [simvastatin]
Estimate, difference between change in high and low responders: DGLC (total diglyceride): 2.4502 nMoles per gram of serum or plasma | Estimate, difference between change in high and low responders: LY14.1n5 [1]: 0.0135 percentage | Estimate, difference between change in high and low responders: LY16.0 [1]: −1.1505 percentage | Estimate, difference between change in high and low responders: LY18.0 [1]: −1.1443 percentage | Estimate, difference between change in high and low responders: LY18.1n9 [1]: 0.3099 percentage | Estimate, difference between change in high and low responders: LY18.3n6 [1]: 0.0774 percentage | Estimate, difference between change in high and low responders: LY20.4n3 [1]: −0.019 percentage | Estimate, difference between change in high and low responders: LY20.4n6 [1]: 0.1269 percentage | Estimate, difference between change in high and low responders: LY20.5n3 [1]: 0.0994 percentage | Estimate, difference between change in high and low responders: PC18.2n6 [2]: −1.5254 percentage | Estimate, difference between change in high and low responders: PC18.3n3 [2]: −0.0498 percentage | Estimate, difference between change in high and low responders: PC20.3n9 [2]: −0.0509 percentage | Estimate, difference between change in high and low responders: PC20.4n6 [2]: 1.1779 percentage | Estimate, difference between change in high and low responders: PC22.6n3 [2]: 0.4153 percentage | Estimate, difference between change in high and low responders: PE14.1n5 [3]: 0.0551 percentage | Estimate, difference between change in high and low responders: PE18.0 [3]: −2.0267 percentage | Estimate, difference between change in high and low responders: PE18.2n6 [3]: −1.036 percentage | Estimate, difference between change in high and low responders: PE20.0 [3]: 0.0189 percentage | Estimate, difference between change in high and low responders: PE20.3n6 [3]: −0.4196 percentage | Estimate, difference between change in high and low responders: PE20.4n3 [3]: −0.0102 percentage | Estimate, difference between change in high and low responders: PE22.5n3 [3]: −0.1266 percentage | Estimate, difference between change in high and low responders: TG18.3n3 [4]: −0.0787 percentage | Estimate, difference between change in high and low responders: TG18.3n6 [4]: 0.1008 percentage | Estimate, difference between change in high and low responders: TG18.4n3 [4]: 0.0378 percentage | Estimate, difference between change in high and low responders: TG20.3n9 [4]: −0.0052 percentage | Estimate, difference between change in high and low responders: TG20.4n3 [4]: −0.0056 percentage | Estimate, difference between change in high and low responders: TG20.4n6 [4]: 0.1005 percentage | Estimate, difference between change in high and low responders: TG22.0 [4]: 0.0184 percentage | Estimate, difference between change in high and low responders: TG22.4n6 [4]: −0.0138 percentage | Estimate, difference between change in high and low responders: TG22.5n6 [4]: −0.0165 percentage | Estimate, difference between change in high and low responders: FA20.0 (proportion of free fatty acids): 0.0159 percentage | Estimate, difference between change in high and low responders: FA20.1n9 (proportion of free fatty acids): 0.0823 percentage | Estimate, difference between change in high and low responders: FA22.1n9 (proportion of free fatty acids): −0.0615 percentage | Estimate, difference between change in high and low responders: FA22.2n6 (proportion of free fatty acids): −0.0088 percentage
